According to patent US20110190235A1, “BORON-CONTAINING SMALL MOLECULES AS ANTIPROTOZOAL AGENTS” (Anacor Pharmaceuticals, Inc., priority 2009, published 2011):
Values after ≈ are worked out from the molar mass of the structure shown. Where two headings read alike, the source gives them in different places.

What was measured:
[1] = test system: bloodstream-form trypanosome T. brucei brucei 427 strain; assay: Trypanosoma brucei brucei high-throughput in vitro drug sensitivity assay (resazurin); type: cell-based; conditions: Trypanosoma brucei, 72 h
[2] = Kinetic solubility by nephelometric (light scattering) method; type: physicochemical; conditions: PBS pH 7.4
Procedure: The kinetic solubilities of compounds were estimated using a nephelometric (light scattering) method. Briefly, compounds were serially diluted in DMSO, followed by dilution in PBS pH 7.4. After incubation, the amount of light scattered by a compound at each concentration was measured. […] At concentrations above the solubility limit, the compound precipitates and the precipitant in the well scatters the light, generating a signal. Higher levels of precipitant in a well scatter more light and produce a stronger signal.
A stock solution of compound (25 mM in DMSO) was prepared, and was serially diluted in DMSO in two-fold increments in a row of a 96 well plate to a lowest concentration of 24 μM. A duplicate plate was prepared by transfer of half of the volume of each well to a new plate. Each well containing DMSO solution of the test compound was then diluted further (1:100) with phosphate buffered saline (pH 7.4) to provide aqueous solutions of compound at the following final concentrations: 250, 125, 62.5, 31.3, 15.6, 7.8, 3.9, 2.0, 1.0, 0.5 and 0.2 μM. All liquid handling stages were performed on a Beckman Coulter Biomek NX Laboratory Automation Workstation. Each compound was diluted and tested in duplicate, providing four separate wells at each test concentration.
The test solutions of compound were incubated at room temperature for 90 minutes and then analyzed using a Thermoskan Ascent nephelometric plate reader. The nephelometer protocol included two steps: first, the plate was shaken for 60 seconds at 1200 rpm, then each well of the plate was read in succession with an 800 ms settling delay between measurements. The total measurement time for a single plate was less than 4 minutes.
The four values (in nephelometric units) obtained for each compound at each concentration were averaged and plotted on a log scale versus concentration.

[3] = L929 cytotoxicity evaluation (resazurin); type: cell-based; conditions: mouse, L929 mouse fibroblast cells; 72 hrs incubation; read-out: Cytotox L-929 IC50
Procedure, shortened: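 Mouse L929 fibroblasts (1×10^4/mL seeding, attached overnight) were treated 72 h at 37 °C, 5% CO2 with serially diluted compounds in DMSO in D-MEM/10% FBS. Viability read by resazurin fluorescence after 3–4 h (ex 544/em 590 nm); IC50 from sigmoidal fits of single data points.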

[4] = Pharmacokinetic studies in mice (plasma, brain); type: in vivo; conditions: for Cmax: normalized to 25 mg/kg (nominal 25 mg/kg); for AUC(0-t) / AUC(0-inf): normalized to 25 mg/kg; for AUC(0-t): read-out: Exposure/trapezoid AUC0-18; for AUC(0-inf): read-out: Exposure/trapezoid AUC0-inf
Procedure: Male CD-1 mice weighing approximately 25 g received the test article (E19 or 82 or E14 or 69) by either intravenous (IV), oral gavage (OG) or intra-peritoneal (IP) routes. Animals in IV group (6-10 animals, 1-2 per time point) received a single bolus injection of approximately 2 mg/kg of the test article. Animals receiving […], or as 4 repeat doses ([…], 1-2 per time point).
All doses were administered as clear colorless solutions in either: 50% (v/v) PEG400:20% (v/v) ethanol:30% (v/v) carboxymethylcellulose (0.5% w/v in sterile water for injection, WFI), or as in situ sodium salts in 5% (m/v) dextrose:2% (v/v) ethanol in DWI. All dose solutions were delivered at 4 mL/kg. Animals were fasted for at least 4 hours before dosing, and for 2 hours after dosing.
Blood samples and brain tissue were sampled from 1 or 2 animals/timepoint/group immediately before dosing and approximately 0.17, 0.5, 1, 2, 3, 4, 6, 8, 12, 18 and 24 hr after dosing for full pharmacokinetic and tissue analysis, or at 0.5, 2 and 4 hours post dosing to assess early-phase CNS disposition.
Bioanalysis for test article in whole blood, plasma or brain tissue was performed by HPLC with tandem mass spectrometry (LC-MSMS). Whole blood and plasma samples were treated with 3 volumes of either acetonitrile or methanol to precipitate plasma proteins. Treated samples were centrifuged and supernatants removed for analysis. Brain tissues were weighed and homogenized mechanically in the presence of 1 volume of phosphate-buffered saline (PBS). The resulting tissue suspensions were then diluted with a further volume of PBS, and then treated in the same manner as whole blood or plasma.
Extracted samples were assayed for test article by means of LC-MSMS employing reversed-phase chromatography coupled to a triple quadrupole mass spectrometer employing electrospray ionization in the positive ion mode. The analytical column was a Phenomenex Luna 3μ C8 50×2 mm, with an online sample purification step performed on a Phenomenex Synergi 4μ Polar RP 50×2 mm column.
Test articles were eluted using a binary mobile phase gradient comprising 5 mM Ammonium Acetate: 0.1% formic acid in either MeOH or H2O.
Non-compartmental analysis of plasma test article concentration versus time was performed in Microsoft Excel to generate pharmacokinetic parameters including: area under the curve (AUC), clearance (as Cl or Cl/F), volume of distribution (Vdss), half-life (t½), and bioavailability (F).

[5] = male, CD-1, mouse, brain, oral, mice
[6] = male, CD-1, mouse, plasma, oral, mice

Q: With CC1(C)OB(O)c2cc(NC(=O)c3ccc(F)cc3C(F)(F)F)ccc21 [compound 82] as the compound, how does the IC50 ([1]; read-out: T. b. brucei IC50 (nM)) read?
A: The IC50 was 556 nM.

Q: What about the IC50 ([1]; read-out: T.b. brucei IC50 (ug/mL)) of the same compound?
A: The IC50 was 0.204 µg/mL.

Q: And the “Solubility” value [2]?
A: The value was 25 µM (≈ 9.18 µg/mL).

Q: And the IC50 at 72 h [3]?
A: Its IC50 at 72 h is over 10 µg/mL.

Q: What about the CL/F ([4]; male, CD-1, mouse, 25 mg/kg, plasma, oral, mice, read-out: Oral Clearance Cl/F (converted)) of the same compound?
A: The CL/F was 3.27 mL/min/kg.

Q: What about the half-life ([4]; male, CD-1, mouse, 25 mg/kg, plasma, oral, mice, read-out: t½ (converted)) of the same compound?
A: The half-life was 6.9 h.

Q: And the Cmax [4, 5]?
A: Its Cmax is 7700 ng/mL.

Q: What about the AUC(0-t) [4, 5] of the same compound?
A: The AUC(0-t) was 64900 ng·h/mL.

Q: And the AUC(0-inf) [4, 5]?
A: The AUC(0-inf) was 65500 ng·h/mL.

Q: What about the Cmax [4, 6] of the same compound?
A: Its Cmax is 9400 ng/mL.

Q: And the AUC(0-t) [4, 6]?
A: Its AUC(0-t) is 108000 ng·h/mL.

Q: And the AUC(0-inf) [4, 6]?
A: Its AUC(0-inf) is 128000 ng·h/mL.

Q: What about the “brain concentrations relative to the MIC” value ([4]; mouse and rat, brain (and CSF)) of the same compound?
A: Its value is “maintains concentrations above the MIC for extended time periods”.

Q: And the “fold improved exposure in brain tissue over E19” value ([4]; mouse, in vivo)?
A: The value was 6-12 fold.

Q: And the “Fold improvement 82 vs. E19: Oral Clearance Cl/F” value ([4]; mouse, in vivo, po)?
A: The value was 1.2 fold.

Q: And the “Fold improvement 82 vs. E19: t½” value ([4]; mouse, in vivo, po)?
A: Its value is 0.4 fold.

Q: And the “fold improved plasma exposure (based on AUC) over E19” value ([4]; mouse, in vivo, po)?
A: Its value is 2-4 fold.

Q: And the “Fold improvement 82 vs. E19: Cmax” value ([4]; mouse, in vivo, po, brain)?
A: Its value is 1.6 fold.

Q: What about the “Fold improvement 82 vs. E19: Cmax” value ([4]; mouse, in vivo, po, plasma) of the same compound?
A: Its value is 1.2 fold.

Q: What about the “dose proportionality of brain exposure” value ([4]; oral delivery to mice) of the same compound?
A: Its value is “generally dose-proportional increases”.

Q: And the “dose proportionality of plasma exposure” value ([4]; oral delivery to mice)?
A: Its value is “greater than proportional at doses above 20 mg/kg”.

Q: What about the “F (% of IV)” value ([4]; plasma, oral, mice) of the same compound?
A: Its value is 45%.

Q: And the “plasma PK when administered to rodents” value ([4]; rodents, plasma)?
A: The value was “good exposure (AUC and Cmax), promising bioavailability, prolonged half-life, and low clearance”.
